Measurements from patent US20240252581A1, “COMPOSITIONS AND METHODS FOR TREATING RESPIRATORY DISTRESS” (S.I.S. SHULOV INNOVATIVE SCIENCE LTD., priority 2021, published 2024).
Where “and” joins values, the source holds several entries; their conditions need not be identical. Identical values can stand only once. Square brackets hold non-standard residues; d marks the D form. Peptide text beside a SMILES is read from it. * marks the point of attachment. pGlu = O=C1CC[C@@H](C(=O)O)N1; Octanoyl = CCCCCCCC(=O)*

Test system: inflammatory cytokines in BALF
Test: LPS-induced acute lung injury / ARDS mouse model: BALF cytokine concentrations (multiplex ELISA)
Type: in vivo, BALB/c mice
Details: BALF
Protocol: In order to test the efficacy of ZEP3 sodium on lung inflammation, the lipopolysaccharide (LPS)-induced acute lung injury model was used. In particular, LPS was administered intratracheally at doses of 10 or 40 mg/kg body weight (BW) corresponding to 0.2 or 0.8 mg/mouse, respectively.
ZEP3 sodium was administered by inhalation (INH) at doses of 25 or 250 mg/kg BW (0.5 or 5 mg/mouse, respectively), or intratracheally (IT) at doses of 5 or 20 mg/kg BW (0.1 or 0.4 mg/mouse, respectively) 6 hours after LPS administration and its effect was measured 72 hours following administration in the branchial alveolar fluid (BALF) using FACS instrumentation.
To detect cytokine release in lungs fluid, cytokine concentrations were assessed in BALF samples using high sensitivity multiplex ELISA assays for: IFN-γ, IL-1α, IL-5, IL-6, IL-10, IL-12 (p70), IL-17A, KC, MCP-1, TNF-α, IP-10, RANTES, G-CSF, MIP-1α and RANTES. ZEP3Na administered intratracheally at 0.1 and 0.4 mg per mouse after instillation of 0.2 mg LPS inhibited the concentration of following interleukins: IL-1α, IL-6, IL-10, IL-12, IL-17, KC, MCP-1, TNF-α and G-CSF.

[1] = Group 2: ZEP3Na 0.1 mg IT, no LPS, group mean
[2] = Group 2: ZEP3Na 0.1 mg IT, no LPS, individual mice
[3] = Group 3: ZEP3Na 0.4 mg IT, no LPS, group mean
[4] = Group 3: ZEP3Na 0.4 mg IT, no LPS, individual mice
[5] = Group 4: LPS 0.8 mg + ZEP3Na 0.1 mg IT, group mean
[6] = Group 4: LPS 0.8 mg + ZEP3Na 0.1 mg IT, individual mice
[7] = Group 5: LPS 0.8 mg + ZEP3Na 0.4 mg IT, group mean
[8] = Group 5: LPS 0.8 mg + ZEP3Na 0.4 mg IT, individual mice
[9] = Group 8: LPS 0.2 mg + ZEP3Na 0.1 mg IT, group mean
[10] = Group 8: LPS 0.2 mg + ZEP3Na 0.1 mg IT, individual mice
[11] = Group 9: LPS 0.2 mg + ZEP3Na 0.4 mg IT, group mean

SMILES: CCCCCCCC(=O)NCCCC[C@H](NC(=O)[C@H](Cc1c[nH]c2ccccc12)NC(=O)[C@H](CC(N)=O)NC(=O)[C@@H]1CCC(=O)N1)C(=O)O [ZEP3Na, pGlu-Asn-Trp-Lys(Octanoyl)-ONa] ([pGlu]NWK(Octanoyl)-OH)
- production of IL-12 and TNF-α (0.8 mg LPS treated mice, 0.1 and 0.4 mg): significantly inhibited
- G-CSF [1]: 2.60 pg/mL
- IL-12 (p70) [1]: 7.31 pg/mL
- IL-17A [1]: 0.35 pg/mL
- KC [1]: 59.28 pg/mL
- MCP-1 [1]: 0.00 pg/mL
- G-CSF [2]: 2.37 pg/ml (2×) and 1.99 pg/ml (2×) and 5.06 pg/ml and 2.76 pg/ml (2×) and 3.53 pg/ml and 3.15 pg/ml
- G-CSF (pg/ml) [2]: undetected
- IL-12 (p70) [2]: 9.22 pg/ml (2×) and 9.10 pg/ml and 8.79 pg/ml (2×) and 7.39 pg/ml and 5.38 pg/ml and 4.32 pg/ml and 10.92 pg/ml
- IL-12 (p70) (pg/ml) [2]: undetected
- IL-17A [2]: 0.63 pg/mL and 2.12 pg/mL and 0.73 pg/mL
- IL-17A (pg/ml) [2]: undetected
- KC [2]: 46.08 pg/mL and 58.58 pg/mL and 58.91 pg/mL and 89.58 pg/mL and 95.87 pg/mL and 47.76 pg/mL and 43.47 pg/mL and 64.27 pg/mL and 42.44 pg/mL and 45.89 pg/mL
- MCP-1 (pg/ml) [2]: undetected
- G-CSF [3]: 3.26 pg/mL
- IL-12 (p70) [3]: 7.54 pg/mL
- IL-17A [3]: 1.26 pg/mL
- KC [3]: 70.95 pg/mL
- MCP-1 [3]: 4.89 pg/mL
- G-CSF [4]: 7.65 pg/ml and 3.47 pg/ml (2×) and 2.20 pg/ml (2×) and 6.40 pg/ml and 3.89 pg/ml
- G-CSF (pg/ml) [4]: undetected
- IL-12 (p70) [4]: 8.49 pg/ml (2×) and 7.27 pg/ml and 7.92 pg/ml and 5.27 pg/ml and 9.45 pg/ml and 7.21 pg/ml and 5.22 pg/ml and 8.54 pg/ml
- IL-17A [4]: 2.02 pg/ml and 1.13 pg/ml and 1.36 pg/ml and 1.47 pg/ml and 1.20 pg/ml (2×) and 1.06 pg/ml and 0.73 pg/ml and 1.14 pg/ml
- KC [4]: 56.01 pg/mL and 58.30 pg/mL and 63.33 pg/mL and 62.30 pg/mL and 71.12 pg/mL and 68.10 pg/mL and 52.39 pg/mL and 46.36 pg/mL and 160.65 pg/mL
- MCP-1 [4]: 11.53 pg/ml and 11.29 pg/ml (2×) and 9.93 pg/ml
- MCP-1 (pg/ml) [4]: undetected
- G-CSF [5]: 138.16 pg/mL
- IL-12 (p70) [5]: 124.09 pg/mL
- IL-17A [5]: 837.99 pg/mL
- KC [5]: 466.06 pg/mL
- MCP-1 [5]: 70.18 pg/mL
- G-CSF [6]: 250.42 pg/mL and 141.30 pg/mL and 164.43 pg/mL and 89.05 pg/mL and 416.35 pg/mL and 50.11 pg/mL and 131.80 pg/mL
- G-CSF (pg/ml) [6]: undetected
- IL-12 (p70) [6]: 6.33 pg/mL and 5.38 pg/mL and 235.43 pg/mL and 103.27 pg/mL and 192.86 pg/mL and 41.94 pg/mL and 414.83 pg/mL and 27.99 pg/mL and 88.80 pg/mL
- IL-17A [6]: 1287.47 pg/mL and 55.37 pg/mL and 719.90 pg/mL and 51.28 pg/mL and 5285.06 pg/mL and 77.04 pg/mL and 65.83 pg/mL
- IL-17A (pg/ml) [6]: undetected
- KC [6]: 39.18 pg/mL and 29.08 pg/mL and 847.35 pg/mL and 522.41 pg/mL and 798.01 pg/mL and 253.77 pg/mL and 831.88 pg/mL and 234.34 pg/mL and 638.49 pg/mL
- MCP-1 [6]: 70.21 pg/mL and 76.09 pg/mL and 93.90 pg/mL and 58.01 pg/mL and 114.01 pg/mL and 53.91 pg/mL and 165.51 pg/mL
- MCP-1 (pg/ml) [6]: undetected
- G-CSF [7]: 190.32 pg/mL
- IL-12 (p70) [7]: 102.59 pg/mL
- IL-17A [7]: 204.85 pg/mL
- KC [7]: 773.23 pg/mL
- MCP-1 [7]: 190.69 pg/mL
- G-CSF [8]: 491.06 pg/mL and 209.62 pg/mL and 268.52 pg/mL and 300.90 pg/mL and 7.65 pg/mL and 3.47 pg/mL and 124.37 pg/mL and 116.99 pg/mL
- IL-12 (p70) [8]: 7.58 pg/mL and 215.64 pg/mL and 368.44 pg/mL and 12.63 pg/mL and 7.60 pg/mL and 194.02 pg/mL and 14.83 pg/mL
- IL-12 (p70) (pg/ml) [8]: undetected
- IL-17A [8]: 7.23 pg/mL and 265.69 pg/mL and 1207.05 pg/mL and 13.05 pg/mL and 2.04 pg/mL and 0.52 pg/mL and 136.95 pg/mL and 6.24 pg/mL
- KC [8]: 1115.74 pg/mL and 1099.42 pg/mL and 1195.30 pg/mL and 488.61 pg/mL and 54.20 pg/mL and 57.06 pg/mL and 981.92 pg/mL and 1193.59 pg/mL
- MCP-1 [8]: 810.24 pg/mL and 166.84 pg/mL and 79.29 pg/mL and 307.60 pg/mL and 15.45 pg/mL and 83.52 pg/mL and 62.54 pg/mL
- MCP-1 (pg/ml) [8]: undetected
- G-CSF [9]: 187.95 pg/mL
- IL-12 (p70) [9]: 264.97 pg/mL
- IL-17A [9]: 724.27 pg/mL
- KC [9]: 1023.71 pg/mL
- MCP-1 [9]: 133.24 pg/mL
- G-CSF [10]: 175.22 pg/mL and 144.90 pg/mL and 109.99 pg/mL and 383.77 pg/mL and 239.49 pg/mL and 199.64 pg/mL and 249.05 pg/mL and 93.60 pg/mL and 177.33 pg/mL and 106.48 pg/mL
- IL-12 (p70) [10]: 247.16 pg/mL and 386.37 pg/mL and 66.34 pg/mL and 199.27 pg/mL and 322.18 pg/mL and 422.04 pg/mL and 317.94 pg/mL and 97.45 pg/mL and 202.28 pg/mL and 388.69 pg/mL
- IL-17A [10]: 553.70 pg/mL and 1615.14 pg/mL and 285.28 pg/mL and 1776.16 pg/mL and 862.84 pg/mL and 989.92 pg/mL and 458.49 pg/mL and 111.01 pg/mL and 281.41 pg/mL and 308.73 pg/mL
- KC [10]: 782.52 pg/mL and 1528.47 pg/mL and 503.00 pg/mL and 672.71 pg/mL and 1548.79 pg/mL and 1057.28 pg/mL and 1346.32 pg/mL and 808.21 pg/mL and 1086.03 pg/mL and 903.77 pg/mL
- MCP-1 [10]: 107.46 pg/mL and 158.19 pg/mL and 142.05 pg/mL and 85.01 pg/mL and 91.65 pg/mL and 135.00 pg/mL and 216.90 pg/mL and 114.81 pg/mL and 109.95 pg/mL and 171.38 pg/mL
- G-CSF [11]: 172.12 pg/mL
- IL-12 (p70) [11]: 161.01 pg/mL
- IL-17A [11]: 584.07 pg/mL
